Measurements: PubChem BioAssay (NCI)
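The compound was tested at five concentrations on cells cultured in 96-well plates, with a 48-hour exposure period. TGI denotes the concentration required for complete inhibition of growth.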

Columns and labels:
Assay in all cases: inhibition of tumour cell growth, NCI panel, 48 h
786-0 renal = test system: 786-0 renal
A498 renal = test system: A498 renal
A549 NSCLC = test system: A549 NSCLC
ACHN renal = test system: ACHN renal
CAKI-1 renal = test system: CAKI-1 renal
CCRF-CEM leukemia = test system: CCRF-CEM leukemia
COLO 205 colon = test system: COLO 205 colon
DLD-1 colon = test system: DLD-1 colon
DMS 114 small cell lung = test system: DMS 114 small cell lung
DMS 273 small cell lung = test system: DMS 273 small cell lung
EKVX NSCLC = test system: EKVX NSCLC
HCC-2998 colon = test system: HCC-2998 colon
HCT-116 colon = test system: HCT-116 colon
HCT-15 colon = test system: HCT-15 colon
HL-60(TB) leukemia = test system: HL-60(TB) leukemia
HOP-18 NSCLC = test system: HOP-18 NSCLC
HOP-62 NSCLC = test system: HOP-62 NSCLC
HOP-92 NSCLC = test system: HOP-92 NSCLC
HT29 colon = test system: HT29 colon
IGROV1 ovarian = test system: IGROV1 ovarian
K-562 leukemia = test system: K-562 leukemia
KM12 colon = test system: KM12 colon
KM20L2 colon = test system: KM20L2 colon
LOX IMVI melanoma = test system: LOX IMVI melanoma
LXFL 529 NSCLC = test system: LXFL 529 NSCLC
M14 melanoma = test system: M14 melanoma
M19-MEL melanoma = test system: M19-MEL melanoma
MALME-3M melanoma = test system: MALME-3M melanoma
MOLT-4 leukemia = test system: MOLT-4 leukemia
NCI-H226 lung = test system: NCI-H226 lung
NCI-H23 lung = test system: NCI-H23 lung
NCI-H460 lung = test system: NCI-H460 lung
NCI-H522 lung = test system: NCI-H522 lung
OVCAR-3 ovarian = test system: OVCAR-3 ovarian
OVCAR-4 ovarian = test system: OVCAR-4 ovarian
OVCAR-5 ovarian = test system: OVCAR-5 ovarian
OVCAR-8 ovarian = test system: OVCAR-8 ovarian
RPMI-8226 leukemia = test system: RPMI-8226 leukemia
RXF 393 renal = test system: RXF 393 renal
RXF-631 renal = test system: RXF-631 renal
SF-268 CNS = test system: SF-268 CNS
SF-295 CNS = test system: SF-295 CNS
SF-539 CNS = test system: SF-539 CNS
SK-MEL-2 melanoma = test system: SK-MEL-2 melanoma
SK-MEL-28 melanoma = test system: SK-MEL-28 melanoma
SK-MEL-5 melanoma = test system: SK-MEL-5 melanoma
SK-OV-3 ovarian = test system: SK-OV-3 ovarian
SN12C renal = test system: SN12C renal
SNB-19 CNS = test system: SNB-19 CNS
SNB-75 CNS = test system: SNB-75 CNS
SNB-78 CNS = test system: SNB-78 CNS
SW-620 colon = test system: SW-620 colon
TK-10 renal = test system: TK-10 renal
U251 CNS = test system: U251 CNS
UACC-257 melanoma = test system: UACC-257 melanoma
UACC-62 melanoma = test system: UACC-62 melanoma
UO-31 renal = test system: UO-31 renal
XF 498 CNS = test system: XF 498 CNS
SR leukemia = test system: SR leukemia

Compound: COC(=O)C1CC(C(=O)OC)c2nc3cc([N+](=O)[O-])ccc3nc21 (configuration not stated)
- TGI (786-0 renal): > 100 µM
- TGI (A498 renal): > 100 µM
- TGI (A549 NSCLC): > 100 µM
- TGI (ACHN renal): > 100 µM
- TGI (CAKI-1 renal): > 100 µM
- TGI (CCRF-CEM leukemia): > 100 µM
- TGI (COLO 205 colon): > 100 µM
- TGI (DLD-1 colon): > 100 µM
- TGI (DMS 114 small cell lung): > 100 µM
- TGI (DMS 273 small cell lung): > 100 µM
- TGI (EKVX NSCLC): > 100 µM
- TGI (HCC-2998 colon): > 59.1 µM
- TGI (HCT-116 colon): > 100 µM
- TGI (HCT-15 colon): > 100 µM
- TGI (HL-60(TB) leukemia): > 86.8 µM
- TGI (HOP-18 NSCLC): > 100 µM
- TGI (HOP-62 NSCLC): > 100 µM
- TGI (HOP-92 NSCLC): > 100 µM
- TGI (HT29 colon): > 100 µM
- TGI (IGROV1 ovarian): > 100 µM
- TGI (K-562 leukemia): > 100 µM
- TGI (KM12 colon): > 100 µM
- TGI (KM20L2 colon): > 100 µM
- TGI (LOX IMVI melanoma): > 31.6 µM
- TGI (LXFL 529 NSCLC): > 100 µM
- TGI (M14 melanoma): > 100 µM
- TGI (M19-MEL melanoma): > 100 µM
- TGI (MALME-3M melanoma): > 100 µM
- TGI (MOLT-4 leukemia): > 100 µM
- TGI (NCI-H226 lung): > 100 µM
- TGI (NCI-H23 lung): > 100 µM
- TGI (NCI-H460 lung): > 100 µM
- TGI (NCI-H522 lung): > 64.7 µM
- TGI (OVCAR-3 ovarian): > 100 µM
- TGI (OVCAR-4 ovarian): > 100 µM
- TGI (OVCAR-5 ovarian): > 100 µM
- TGI (OVCAR-8 ovarian): > 100 µM
- TGI (RPMI-8226 leukemia): > 100 µM
- TGI (RXF 393 renal): > 100 µM
- TGI (RXF-631 renal): > 100 µM
- TGI (SF-268 CNS): > 100 µM
- TGI (SF-295 CNS): > 100 µM
- TGI (SF-539 CNS): > 100 µM
- TGI (SK-MEL-2 melanoma): > 100 µM
- TGI (SK-MEL-28 melanoma): > 100 µM
- TGI (SK-MEL-5 melanoma): > 100 µM
- TGI (SK-OV-3 ovarian): > 100 µM
- TGI (SN12C renal): > 100 µM
- TGI (SNB-19 CNS): > 100 µM
- TGI (SNB-75 CNS): > 100 µM
- TGI (SNB-78 CNS): > 100 µM
- TGI (SW-620 colon): > 100 µM
- TGI (TK-10 renal): > 100 µM
- TGI (U251 CNS): > 100 µM
- TGI (UACC-257 melanoma): > 100 µM
- TGI (UACC-62 melanoma): > 100 µM
- TGI (UO-31 renal): 98.9 µM
- TGI (XF 498 CNS): > 100 µM

Compound: COc1ccc(/C=N/Nc2nc(-c3cc4oc(=O)n(C)c4cc3Cl)cs2)cc1OC
- TGI (786-0 renal): > 100 µM
- TGI (A549 NSCLC): 36.2 µM
- TGI (ACHN renal): 62.3 µM
- TGI (CAKI-1 renal): > 100 µM
- TGI (CCRF-CEM leukemia): > 100 µM
- TGI (COLO 205 colon): > 100 µM
- TGI (DLD-1 colon): > 100 µM
- TGI (DMS 114 small cell lung): 39 µM
- TGI (DMS 273 small cell lung): > 100 µM
- TGI (EKVX NSCLC): > 100 µM
- TGI (HCC-2998 colon): > 100 µM
- TGI (HCT-116 colon): > 100 µM
- TGI (HCT-15 colon): 91.8 µM
- TGI (HL-60(TB) leukemia): > 100 µM
- TGI (HOP-18 NSCLC): > 100 µM
- TGI (HOP-62 NSCLC): > 100 µM
- TGI (HOP-92 NSCLC): 77.1 µM
- TGI (HT29 colon): > 100 µM
- TGI (IGROV1 ovarian): 51 µM
- TGI (K-562 leukemia): > 100 µM
- TGI (KM12 colon): > 100 µM
- TGI (KM20L2 colon): > 100 µM
- TGI (LOX IMVI melanoma): > 100 µM
- TGI (LXFL 529 NSCLC): > 100 µM
- TGI (M14 melanoma): > 100 µM
- TGI (M19-MEL melanoma): > 100 µM
- TGI (MALME-3M melanoma): > 100 µM
- TGI (MOLT-4 leukemia): > 100 µM
- TGI (NCI-H23 lung): > 100 µM
- TGI (NCI-H460 lung): > 100 µM
- TGI (OVCAR-3 ovarian): > 100 µM
- TGI (OVCAR-4 ovarian): 31.9 µM
- TGI (OVCAR-5 ovarian): > 100 µM
- TGI (OVCAR-8 ovarian): > 100 µM
- TGI (RPMI-8226 leukemia): > 100 µM
- TGI (RXF 393 renal): 62.6 µM
- TGI (RXF-631 renal): > 100 µM
- TGI (SF-268 CNS): > 100 µM
- TGI (SF-295 CNS): > 100 µM
- TGI (SF-539 CNS): > 100 µM
- TGI (SK-MEL-2 melanoma): > 100 µM
- TGI (SK-MEL-28 melanoma): > 100 µM
- TGI (SK-MEL-5 melanoma): 14.7 µM
- TGI (SK-OV-3 ovarian): > 100 µM
- TGI (SN12C renal): 88.5 µM
- TGI (SNB-19 CNS): > 100 µM
- TGI (SNB-75 CNS): 69.5 µM
- TGI (SNB-78 CNS): > 100 µM
- TGI (SR leukemia): > 100 µM
- TGI (SW-620 colon): > 100 µM
- TGI (TK-10 renal): > 100 µM
- TGI (U251 CNS): > 100 µM
- TGI (UACC-257 melanoma): > 100 µM
- TGI (UACC-62 melanoma): > 100 µM
- TGI (UO-31 renal): > 100 µM
- TGI (XF 498 CNS): 88.5 µM

Compound: C[n+]1[se]c2ccccc2c1Cl
- TGI (786-0 renal): > 59.2 µM
- TGI (A498 renal): > 100 µM
- TGI (A549 NSCLC): > 94 µM
- TGI (ACHN renal): > 70.7 µM
- TGI (CAKI-1 renal): > 56.2 µM
- TGI (CCRF-CEM leukemia): 21.5 µM
- TGI (COLO 205 colon): > 59.8 µM
- TGI (DLD-1 colon): > 59.7 µM
- TGI (DMS 114 small cell lung): > 70 µM
- TGI (DMS 273 small cell lung): 41.5 µM
- TGI (EKVX NSCLC): 52.1 µM
- TGI (HCC-2998 colon): > 81.9 µM
- TGI (HCT-116 colon): 31 µM
- TGI (HCT-15 colon): > 67.3 µM
- TGI (HL-60(TB) leukemia): 19.6 µM
- TGI (HOP-18 NSCLC): 52.9 µM
- TGI (HOP-62 NSCLC): > 58.8 µM
- TGI (HOP-92 NSCLC): 20.2 µM
- TGI (HT29 colon): > 76.3 µM
- TGI (IGROV1 ovarian): > 77.5 µM
- TGI (K-562 leukemia): > 70.7 µM
- TGI (KM12 colon): > 56.7 µM
- TGI (KM20L2 colon): > 75.7 µM
- TGI (LOX IMVI melanoma): 39.7 µM
- TGI (LXFL 529 NSCLC): > 100 µM
- TGI (M14 melanoma): 27.8 µM
- TGI (M19-MEL melanoma): 27.3 µM
- TGI (MALME-3M melanoma): > 56.9 µM
- TGI (MOLT-4 leukemia): > 63.6 µM
- TGI (NCI-H226 lung): > 71.1 µM
- TGI (NCI-H23 lung): 45.8 µM
- TGI (NCI-H460 lung): > 100 µM
- TGI (NCI-H522 lung): 42.7 µM
- TGI (OVCAR-3 ovarian): > 71.9 µM
- TGI (OVCAR-4 ovarian): > 60 µM
- TGI (OVCAR-5 ovarian): > 79.9 µM
- TGI (OVCAR-8 ovarian): > 84.7 µM
- TGI (RPMI-8226 leukemia): > 67 µM
- TGI (RXF 393 renal): 50.4 µM
- TGI (RXF-631 renal): > 67.2 µM
- TGI (SF-268 CNS): 52.4 µM
- TGI (SF-295 CNS): 50.9 µM
- TGI (SF-539 CNS): 37.1 µM
- TGI (SK-MEL-2 melanoma): 28.1 µM
- TGI (SK-MEL-28 melanoma): > 54.7 µM
- TGI (SK-MEL-5 melanoma): 31.1 µM
- TGI (SK-OV-3 ovarian): > 100 µM
- TGI (SN12C renal): 23.7 µM
- TGI (SNB-19 CNS): > 100 µM
- TGI (SNB-75 CNS): 45.8 µM
- TGI (SNB-78 CNS): > 72.8 µM
- TGI (SW-620 colon): 42.6 µM
- TGI (TK-10 renal): > 63 µM
- TGI (U251 CNS): > 74.4 µM
- TGI (UACC-257 melanoma): > 46.9 µM
- TGI (UACC-62 melanoma): 33.2 µM
- TGI (UO-31 renal): > 63.5 µM
- TGI (XF 498 CNS): > 54.9 µM
